{
  "source": "paper PMC12662848",
  "about": "(Cancer Chemotherapy and Pharmacology, 2025)",
  "tested_on": "BCL-2",
  "assay": "Western blotting of BCL-2α/β proteins and cleaved caspase-3 in healthy donor PBMCs treated ex vivo with ABT-199",
  "format": "cell-based, human",
  "settings": "1 µM",
  "procedure": "PBMCs from the trial patients or healthy donors were isolated from whole blood using Lymphoprep™ ([…] Technologies, Cat. #07801) following the manufacturer’s protocol. Whole blood was diluted 1:1 with room temperature phosphate-buffered saline (PBS) containing 2% fetal bovine serum (FBS) and carefully layered over an equal volume of Lymphoprep™ in a 50 mL conical tube. Samples were centrifuged at 800 × g for 20–30 min at room temperature with the brake off. The PBMC layer formed at the interface between the plasma and Lymphoprep™ was gently collected and transferred to a new tube. Cells were washed once with PBS containing 2% FBS by centrifugation at 300 × g for 10 min, and the final pellet was resuspended in DMEM media for downstream culture.\nABT-199 (S8048, Selleck Chemicals) was dissolved in DMSO. Healthy donor PBMCs were seeded at a density of 2 × 10⁶ cells per 60 mm dish and treated with 1 μM of ABT-199 for various time intervals (i.e., 2, 4, 8, and 24 h). At the end of each time point, PBMCs were harvested for protein and RNA extraction (below). All treatments were performed in 3–6 biological replicates and control samples were treated with vehicle (DMSO) only.\nPBMC samples from above were harvested using 0.1% trypsin–EDTA solution (Gibco) and centrifuged (1,000 rcf, 4 min, 4 °C), washed with DPBS (Gibco), centrifuged again (1,000 rcf, 4 min, 4 °C), and the pellet was lysed in denaturing buffer containing Halt protease inhibitor cocktail (Thermo Fisher Scientific; Cat# SD-001/SN-002) for 15 min on ice. After centrifugation (15,000 rcf, 15 min, 4 °C), an aliquot of the supernatant was taken to determine the protein concentration using a BCA Protein Assay Kit (Thermo Fisher Scientific). Protein samples were mixed in NuPAGE LDS buffer and 1 × reducing agent (Invitrogen) and denatured at 95 °C for 5 min. Proteins separated by sodium dodecyl sulfate–polyacrylamide gel electrophoresis (SDS-PAGE) were transferred to a nitrocellulose membrane at 110 V for 110 min in a wet tank transfer system (Surelock system, Invitrogen). […]",
  "data": [
    {"smiles": "CC1(C)CCC(CN2CCN(c3ccc(C(=O)NS(=O)(=O)c4ccc(NCC5CCOCC5)c([N+](=O)[O-])c4)c(Oc4cnc5[nH]ccc5c4)c3)CC2)=C(c2ccc(Cl)cc2)C1", "note": "[venetoclax]", "values": [
      {"measurement": "Apoptosis: active (cleaved) caspase-3", "setting": "PBMCs from all 3 healthy donors", "value": "increased active (cleaved) caspase-3"},
      {"measurement": "BCL-2β protein levels and BCL-2β/BCL-2α ratios", "setting": "all 3 healthy donor PBMCs, from 2 h up to 8 h", "value": "upregulated BCL-2β protein levels and increased the BCL-2β/BCL-2α ratios"},
      {"measurement": "BCL-2α/BCL-2β proteins", "setting": "healthy donor PBMCs, ≥ 24 h post treatment", "value": "lost and undetectable"}
    ]}
  ]
}
